Assay results as given in patent US7935705B2, “N-alkylated rifampin” (Medtronic, Inc., priority 2007, dated 2011).

Assays:
[1] = test system: Staphylococcus aureus (ATCC 29213); assay: Disc zone of inhibition on agar plates coated with S. aureus; assay type: cell-based; conditions: for zone of inhibition: disc containing 5 μg, agar plates coated with S. aureus ATCC 29213, 35° C. for 24 hours
Experimental: The ability of the compound of Formula II to inhibit growth of Staphylococcus aureus (ATCC 29213) was determined in vitro. Briefly, agar plates were coated with S. aureus and discs containing 5 μg of rifampin and 5 μg of a compound of Formula II were placed on the coated plates. The plates were incubated at 35° C. for 24 hours and the zones of inhibition of the rifampin and the compound of Formula II were determined. The zone of inhibition for the rifampin loaded disc was 28 mm. The zone of inhibition for the disc with a compound of Formula II was 18 mm.

[2] = after five EtO sterilization cycles; polymeric articles; cited from earlier work
[3] = test system: Staphylococcus aureus (ATCC 29213); assay: Minimum Inhibitory Concentration (MIC) evaluation; assay type: cell-based; conditions: ATCC29213, S. aureus, in vitro, read-out: Baseline MIC

| MIC [3] [mg/L] | Compound | zone of inhibition [1] [mm] | rifampin recoverable [2] [%] | activity against Staphlococcus aureus ([1]; qualitative statement in summary) |
| --- | --- | --- | --- | --- |
| – | 5,6,9,17,19,21-Hexahydroxy-23-methoxy-2,4,12,16,18,20,22-heptamethyl-8-[N-(4-methyl-1-piperazinyl)formimidoyl]-2,7-(epoxypentadeca[1,11,13]trienimino)-naphtho[2,1-b]furan-1,11(2H)-dione 21-acetate [rifampin] | 28 | 5 | – |
| 2 to 4 | COC1/C=C/OC2(C)Oc3c(C)c(O)c4c(O)c(c(/C=N/N5CC[N+](C)(CC[O-])CC5)c(O)c4c3C2=O)NC(=O)/C(C)=C\C=C\C(C)C(O)C(C)C(O)C(C)C(OC(C)=O)C1C (centres unmarked) [compound of Formula II] | 18 | – | has activity |
